Source: patent publication US11613558B2, “Peptides and pharmaceutical compositions for treating eye diseases” (Yuyu Pharma, Inc., priority 2018, dated 2023)
Where a name gives a salt, the structure may show the parent alone. Numbered stars: 1 amine (or outer) side, 2 acyl side, 3 side chain; on linkers, the order of the positions; unused ones are H or OH. Square brackets hold non-standard residues; d marks the D form. Peptide text beside a SMILES is read from it. X2 = C[C@@H]1CC[C@@H](C(=O)[*:2])N1[*:1]; Pro(4,4-Me2) = CC1(C)CN[C@H](C(=O)O)C1; d(cisHyp) = O=C(O)[C@H]1C[C@@H](O)CN1; Nva(4-oxo) = CC(=O)C[C@H](N)C(=O)O; Hyp = O=C(O)[C@@H]1C[C@@H](O)CN1; dHyp = O=C(O)[C@H]1C[C@H](O)CN1; Sar = CNCC(=O)O

Experiments:
[1] = tested on: human primary corneal epithelial cells; assay: Cell growth rate of human primary corneal epithelial cells (CellTiter-Glo); assay type: cell-based; conditions: 48 hours and 72 hours
Procedure: In order to confirm whether the YDE derivatives could recover corneal damage, the cellular growth rate of human primary corneal epithelial cells was checked.
Specifically, primary corneal epithelial cells (ATCC, ATCC PCS-700-010) were seeded on a 96-well culture plate (Perkin Elmer, 6005680) containing the Corneal Epithelial Cell Basal Medium (ATCC, ATCC PCS-700-030) in the Corneal Epithelial Cell Growth Kit (ATCC, ATCC PCS-700-040) in an amount of 5×10^3 cells per well, which was then cultured for 24 hours under the conditions of 37° C. and 5% CO2.
YDE-001 to YDE-075 were each dissolved in 100% DMSO (Sigma, D2660) to a concentration of 10 mM, which was then diluted with 100% DMSO to a concentration of the compound of 6, 1.9, 0.6, 0.2, 0.06, 0.02, 0.006, and 0.002 mM. 20 μl of the diluted YDE derivative was added to a 96-well microplate (Greiner Bio-One, 651201) containing 380 μl of the Corneal Epithelial Cell Basal Medium such that the concentration of DMSO was diluted to 5%.
After 24 hours, 20 μl of each of the YDE derivatives diluted in the 96-well microplate was added to the 96-well culture plate containing the cells. As a control group, hEGF (Sigma, E9644) was treated at the same concentration as the YDE derivatives. The cells treated with the YDE-derivatives or hEGF were cultured for 48 hours and 72 hours under the conditions of 37° C. and 5% CO2 (FIGS. 18 to 25).
The cultured cells were treated with the CellTiter-Glo luminescent reagent (Promega, G7573) according to the manufacturer's instructions and reacted for 30 minutes at room temperature. Thereafter, the fluorescent signal (or luminescence signal) was checked using an Envision 2014 Multi-label plate reader. The measured values were normalized using a vehicle control (100% proliferation cell).

[2] = tested on: rats with dry eye syndrome (extraorbital lacrimal gland excision, ELGE); assay: Amount of tear secretion (Schirmer test, cobalt chloride paper) in ELGE rats with dry eye syndrome; assay type: in vivo, rat; conditions: for Tear Volumes, Day 7 / Tear Volumes, Day 14: ELGE rats, 3 mg/ml, 5 μl/eye twice daily; for Tear Volumes, Day 7: day 7 of administration; for Tear Volumes, Day 14: day 14 of administration
How it was run: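 Dry eye induced in male Sprague-Dawley rats by extraorbital lacrimal gland excision; sham-operated controls. From 7 days post-surgery, 3 mg/ml test compounds in saline given topically at 5 μl/eye twice daily for 14 days. Tear secretion measured on days 7 and 14 as wetted length of cobalt chloride paper held 60 s in the lateral canthus.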

[3] = tested on: cornea of rats with dry eye syndrome (ELGE); assay: Corneal permeability of fluorescent dye (corneal damage) in ELGE rats with dry eye syndrome; assay type: in vivo, rat; conditions: 5 μl/eye twice daily, day 14
How it was run: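 Dry eye induced in male Sprague-Dawley rats by extraorbital lacrimal gland excision; from day 7, 3 mg/ml compound in saline given at 5 μl/eye twice daily. After 14 doses, rats anaesthetized (Zolethyl 25 mg/kg ip), 1% fluorescein applied 1 h, and corneal staining read 12-24 h later by slit-lamp under blue light.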

[4] = Stability in aqueous solution under long-term storage conditions (related substances); assay type: physicochemical; conditions: 25° C., 75% RH
How it was run: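 Test substances dissolved in water at 1 mg/ml, sealed in glass vials and held at 25° C./75% RH. Related substances measured at 1, 2, 4, 8 and 12 weeks.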

[5] = Table 4, study of YDE-001 to YDE-028
[6] = Table 6, study of YDE-001 to YDE-028, 3 mg/ml
[7] = Table 5, study of YDE-029 to YDE-043

Compound: CC(C)C[C@@H](NC(=O)CNC(=O)[C@@H](CC(C)C)NC(=O)[C@@H](CCC(N)=O)NC(=O)CNC(=O)[C@H]1C[C@@H](O)CN1)C(=O)N[C@H](C)C(=O)NCC(=O)N1CCC[C@@H]1C(=O)N[C@H](CCCCN)C(=O)O [YDE-060] (H-[d(cisHyp)]G[dQ][dL]G[dL][dA]G[dP][dK]-OH)
- Cell proliferation rate (in words) [1]: high cell proliferation rate

Compound: CC(C)C[C@H](NC(=O)CNC(=O)[C@H](CC(C)C)NC(=O)[C@H](CCC(N)=O)NC(=O)CNC(=O)[C@@H]1C[C@@H](O)CN1)C(=O)N[C@@H](C)C(=O)NCC(=O)N1CCC[C@H]1C(=O)N[C@@H](CCCCN)C(=O)O [YDE-011, H-Hyp-Gly-Gln-Leu-Gly-Leu-Ala-Gly-Pro-Lys-OH AcOH salt] (H-[Hyp]GQLGLAGPK-OH)
- Tear Volumes, Day 7 [2, 5]: 4.22 ± 1.45 mm^3
- Tear Volumes, Day 14 [2, 5]: 6.16 ± 2.16 mm^3
- Permeability of fluorescent dye [3, 6]: 18.11 ± 11.61%
- Amount of related substances (after 12 weeks) [4]: 3.83%
- Cell proliferation rate (in words) [1]: high cell proliferation rate

Compound: CC(C)C[C@H](NC(=O)CNC(=O)[C@H](CC(C)C)NC(=O)[C@H](CCC(N)=O)NC(=O)CNC(=O)[C@H]1C[C@H](O)CN1)C(=O)N[C@@H](C)C(=O)NCC(=O)N1CCC[C@H]1C(=O)N[C@@H](CCCCN)C(=O)O [YDE-057] (H-[dHyp]GQLGLAGPK-OH)
- Cell proliferation rate (in words) [1]: high cell proliferation rate

Compound: CC(C)C[C@H](NC(=O)CNC(=O)[C@H](CC(C)C)NC(=O)[C@H](CCC(N)=O)NC(=O)CNC(=O)[C@@H]1CC[C@@H](C)N1)C(=O)N[C@@H](C)C(=O)NCC(=O)N1CCC[C@H]1C(=O)N[C@@H](CCCCN)C(=O)O [YDE-045] (H-[X2]GQLGLAGPK-OH)
- Cell proliferation rate (in words) [1]: high cell proliferation rate

Compound: CC(=O)C[C@H](NC(=O)[C@H](CCC(N)=O)NC(=O)CNC(=O)[C@@H]1C[C@@H](O)CN1)C(=O)N(C)CC(=O)N[C@@H](CC(C)C)C(=O)N[C@@H](C)C(=O)NCC(=O)N1CCC[C@H]1C(=O)N[C@@H](CCCCN)C(=O)O [YDE-025] (H-[Hyp]GQ[Nva(4-oxo)][Sar]LAGPK-OH)
- Tear Volumes, Day 7 [2, 5]: 3.21 ± 0.72 mm^3
- Tear Volumes, Day 14 [2, 5]: 4.72 ± 2.19 mm^3
- Change in amount of tear secretion as compared with the ELGE control group ([2]; study of YDE-001 to YDE-028, 3% solution as printed, after administration for 14 days): did not show any significant changes
- Permeability of fluorescent dye [3, 6]: 47.10 ± 11.45%
- Amount of related substances (after 12 weeks) [4]: 5.17%

Compound: CC(C)C[C@H](NC(=O)CNC(=O)[C@H](CO)NC(=O)[C@H](CCC(N)=O)NC(=O)CNC(=O)[C@@H]1C[C@@H](O)CN1)C(=O)N[C@@H](C)C(=O)NCC(=O)N1CCC[C@H]1C(=O)N[C@@H](CCCCN)C(=O)O [YDE-006] (H-[Hyp]GQSGLAGPK-OH)
- Tear Volumes, Day 7 [2, 5]: 3.44 ± 1.69 mm^3
- Tear Volumes, Day 14 [2, 5]: 5.35 ± 1.68 mm^3
- Permeability of fluorescent dye [3, 6]: 33.23 ± 13.26%
- Amount of related substances (after 12 weeks) [4]: 3.67%

Compound: CC(C)C[C@H](NC(=O)CNC(=O)[C@H](CC(C)C)NC(=O)[C@H](CCC(N)=O)NC(=O)CNC(=O)[C@@H]1CC(C)(C)CN1)C(=O)N[C@@H](C)C(=O)NCC(=O)N1CCC[C@H]1C(=O)N[C@@H](CCCCN)C(=O)O [YDE-040] (H-[Pro(4,4-Me2)]GQLGLAGPK-OH)
- Tear Volumes, Day 7 [2, 7]: 5.77 ± 1.05 mm^3
- Tear Volumes, Day 14 [2, 7]: 8.63 ± 1.53 mm^3
- Permeability of fluorescent dye ([3]; Table 7, study of YDE-029 to YDE-043, 3 mg/ml): 18.33 ± 9.41%
- Amount of related substances (after 12 weeks) [4]: 3.58%
